Test results: patent publication EP4588921A1, “FREE BASE CRYSTAL FORM OF POLYCYCLIC COMPOUND OF NITROGEN-CONTAINING HETEROCYCLE, AND PREPARATION METHOD THEREFOR” (Jiangsu Hansoh Pharmaceutical Group Co., Ltd., priority 2022, dated 2024)

How the values were obtained:
[1] = target: T1, CYP450 1A2 (Homo sapiens, UniProt P05177); test: CYP enzyme single point inhibition test, human liver microsomes; format: in vitro ADME; settings: 20 min incubation
T1 construct: Human liver microsome incubation system was used; from tissue; host or cells: human liver microsomes
T1 sequence (P05177 1-516): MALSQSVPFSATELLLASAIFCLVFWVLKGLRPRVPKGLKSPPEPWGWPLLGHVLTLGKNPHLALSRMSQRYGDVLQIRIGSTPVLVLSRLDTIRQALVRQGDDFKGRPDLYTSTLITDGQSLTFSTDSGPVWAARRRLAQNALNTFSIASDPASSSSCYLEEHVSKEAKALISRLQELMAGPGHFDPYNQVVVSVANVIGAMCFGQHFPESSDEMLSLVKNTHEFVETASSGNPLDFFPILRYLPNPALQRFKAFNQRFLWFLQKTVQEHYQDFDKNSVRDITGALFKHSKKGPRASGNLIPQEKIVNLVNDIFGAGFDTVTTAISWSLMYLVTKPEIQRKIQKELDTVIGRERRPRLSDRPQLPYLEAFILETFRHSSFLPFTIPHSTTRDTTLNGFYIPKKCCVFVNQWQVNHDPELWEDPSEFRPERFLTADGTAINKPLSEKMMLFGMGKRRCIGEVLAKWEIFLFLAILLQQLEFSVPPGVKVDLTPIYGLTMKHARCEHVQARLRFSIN
Description: (§1) Human liver microsome incubation system was used, and the single point method was used to quickly predict the inhibition of compounds on CYP450 enzyme subtypes.
(§2) NADPH (reduced nicotinamide adenine dinucleotide phosphate) was weighed and added to 100 mM phosphate buffer, with the final concentration being 2.5 mM.
(§3) Formulation of the reaction liquid of the test compound: The test example compound was weighed, diluted to 10 mM with DMSO, and diluted to 100 µM with 100 mM phosphate buffer.
(§4) • 1. Liver microsomes (40 µL), substrate (10 µL), and test compound (10 µL) were added to a 96-well plate and the mixture was pre-incubated for 3 min. • 2. NADPH (40 µL) was added. • 3. At 20 min, acetonitrile stop solution containing internal standard (300 µL) was added. • 4. The mixture was centrifuged and the sample was loaded.

[2] = target: T2, CYP450 2C9 (Homo sapiens, UniProt P11712); test: as above; format: in vitro ADME; settings: 20 min incubation
T2 construct: Human liver microsome incubation system was used; from tissue; host or cells: human liver microsomes
T2 sequence (P11712 whole entry): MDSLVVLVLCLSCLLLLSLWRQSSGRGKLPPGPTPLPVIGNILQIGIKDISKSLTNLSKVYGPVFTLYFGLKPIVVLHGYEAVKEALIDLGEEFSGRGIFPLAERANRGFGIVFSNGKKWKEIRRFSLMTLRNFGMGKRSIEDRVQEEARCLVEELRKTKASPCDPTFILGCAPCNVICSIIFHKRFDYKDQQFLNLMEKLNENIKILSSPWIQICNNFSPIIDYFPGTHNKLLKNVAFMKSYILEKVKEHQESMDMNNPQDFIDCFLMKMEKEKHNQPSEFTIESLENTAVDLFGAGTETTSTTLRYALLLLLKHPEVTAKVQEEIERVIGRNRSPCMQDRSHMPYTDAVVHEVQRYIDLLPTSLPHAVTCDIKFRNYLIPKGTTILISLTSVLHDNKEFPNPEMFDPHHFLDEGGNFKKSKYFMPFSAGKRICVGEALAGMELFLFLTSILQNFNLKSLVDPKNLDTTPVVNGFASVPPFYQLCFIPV
Description: as §1, §2, §3, §4

[3] = target: T3, CYP450 2D6 (Homo sapiens, UniProt P10635); test: as above; format: in vitro ADME; settings: 20 min incubation
T3 construct: Human liver microsome incubation system was used; from tissue; host or cells: human liver microsomes
T3 sequence (P10635 whole entry): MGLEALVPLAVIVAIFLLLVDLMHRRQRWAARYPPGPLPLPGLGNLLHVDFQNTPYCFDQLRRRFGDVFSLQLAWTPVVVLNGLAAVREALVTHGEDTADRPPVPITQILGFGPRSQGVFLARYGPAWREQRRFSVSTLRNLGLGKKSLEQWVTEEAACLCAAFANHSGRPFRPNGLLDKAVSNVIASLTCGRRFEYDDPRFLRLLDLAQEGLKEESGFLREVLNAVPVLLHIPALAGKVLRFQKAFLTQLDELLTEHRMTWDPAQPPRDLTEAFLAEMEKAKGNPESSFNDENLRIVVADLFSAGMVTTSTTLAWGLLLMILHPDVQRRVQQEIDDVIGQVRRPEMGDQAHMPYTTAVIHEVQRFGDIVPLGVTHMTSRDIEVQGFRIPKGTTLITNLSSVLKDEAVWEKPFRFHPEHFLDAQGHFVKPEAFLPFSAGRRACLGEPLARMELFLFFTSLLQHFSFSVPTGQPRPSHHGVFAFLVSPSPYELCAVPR
Description: as §1, §2, §3, §4

[4] = target: T4, CYP450 2C19 (Homo sapiens, UniProt P33261); test: as above; format: in vitro ADME; settings: 20 min incubation
T4 construct: Human liver microsome incubation system was used; from tissue; host or cells: human liver microsomes
T4 sequence (P33261 whole entry): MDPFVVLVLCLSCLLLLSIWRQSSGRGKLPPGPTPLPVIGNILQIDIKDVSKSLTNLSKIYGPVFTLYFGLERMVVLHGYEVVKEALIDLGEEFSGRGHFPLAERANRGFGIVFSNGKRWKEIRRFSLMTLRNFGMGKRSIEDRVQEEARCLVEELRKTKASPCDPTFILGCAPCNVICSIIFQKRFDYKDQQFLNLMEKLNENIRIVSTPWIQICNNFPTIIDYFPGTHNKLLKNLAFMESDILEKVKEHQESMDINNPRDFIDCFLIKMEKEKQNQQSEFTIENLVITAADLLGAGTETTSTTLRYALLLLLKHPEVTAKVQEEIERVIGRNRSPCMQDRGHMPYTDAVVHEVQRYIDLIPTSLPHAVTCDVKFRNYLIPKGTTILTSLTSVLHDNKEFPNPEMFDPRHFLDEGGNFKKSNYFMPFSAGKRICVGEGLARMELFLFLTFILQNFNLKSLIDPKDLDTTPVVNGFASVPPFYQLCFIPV
Description: as §1, §2, §3, §4

[5] = in vivo; settings: male, SD, rat, po, 5 mg/kg
Description: SD rats were used as test animals to study the pharmacokinetic behaviour of the compounds of the present invention in rat (plasma) after oral administration at a dose of 5 mg/kg.
The example compound of the present invention, made in house.
Oral administration drug preparation: 20%HP-β-CD in Water
HP-β-CD powder (20 g) was weighed and dissolved in purified water (100 mL), and the mixture was homogeneously mixed by vortex and subjected to ultrasound treatment to afford a clear solution.
The example compound was weighed and added to a 20 mL glass bottle, the solution was added and the mixture was subjected to ultrasound treatment for 10 minutes to afford a colourless clear solution with a concentration of 0.5 mg/mL.
The brain tissues were rinsed with pre-cooled PBS, wiped dry, weighed, and stored at -80°C.
• 1) Acetonitrile (160 µL) was added to plasma sample (40 µL) for precipitation, and the mixture was mixed and centrifuged at 3500 × g for 5 to 20 minutes. • 2) The treated supernatant solution was taken and subjected to LC/MS/MS to analyse the concentrations of the test compounds. LC/MS/MS analysis instrument: AB Sciex API 4000 Qtrap.
• Liquid phase conditions: Shimadzu LC-20AD pump • Chromatographic column: Agilent ZORBAX XDB-C18 (50×2.1 mm, 3.5 µm) mobile phase: liquid A: 0.1% aqueous formic acid solution, liquid B: acetonitrile • Flow rate: 0.4 mL/min • Elution time: 0-4.0 min, the eluent is as follows:
The main pharmacokinetic parameters were calculated using WinNonlin 6.1.

[6] = target: T5, human OX1R (Homo sapiens, UniProt O43613); test: Calcium current (FLIPR) in cells stably expressing OX1 receptor; format: cell-based; settings: CHO-K1/human OX1R cells; agonist OX-A at EC80; FLIPR Tetra
T5 construct: expressed in transfected cells; host or cells: CHO-K1
T5 sequence (O43613 1-425): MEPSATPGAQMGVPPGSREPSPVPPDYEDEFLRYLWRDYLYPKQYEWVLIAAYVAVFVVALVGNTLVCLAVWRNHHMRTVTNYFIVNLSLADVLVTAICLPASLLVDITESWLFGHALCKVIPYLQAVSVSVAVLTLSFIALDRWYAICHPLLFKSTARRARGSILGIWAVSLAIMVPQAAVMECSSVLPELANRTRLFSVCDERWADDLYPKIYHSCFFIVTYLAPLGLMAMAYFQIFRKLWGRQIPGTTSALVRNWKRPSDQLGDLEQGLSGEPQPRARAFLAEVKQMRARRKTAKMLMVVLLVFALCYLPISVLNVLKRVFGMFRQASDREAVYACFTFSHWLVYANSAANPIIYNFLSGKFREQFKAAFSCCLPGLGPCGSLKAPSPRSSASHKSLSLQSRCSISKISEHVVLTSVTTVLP
Description: (§5) Determination of the effect of the compounds of the present invention on calcium current in cells stably expressing OX1 and OX2 receptors 1. Experimental objective: The inhibitory effect of the compounds on calcium current activity in CHO-K1/human OX1R and CHO-K1/human OX2R cells was detected. 2. […] 3. […] The IC50 of the positive compounds and test compounds was determined. 4. Experimental data processing method: FLIPR Tetra was used to read and collect the fluorescence signal value (RFU). […] 5.

[7] = target: T6, human OX2R (Homo sapiens, UniProt O43614); test: Calcium current (FLIPR) in cells stably expressing OX2 receptor; format: cell-based; settings: for IC50: CHO-K1/human OX2R cells, agonist OX-B at EC80, FLIPR Tetra; for Select fold: OX1R IC50 over OX2R IC50
T6 construct: expressed in transfected cells; host or cells: CHO-K1
T6 sequence (O43614 1-444): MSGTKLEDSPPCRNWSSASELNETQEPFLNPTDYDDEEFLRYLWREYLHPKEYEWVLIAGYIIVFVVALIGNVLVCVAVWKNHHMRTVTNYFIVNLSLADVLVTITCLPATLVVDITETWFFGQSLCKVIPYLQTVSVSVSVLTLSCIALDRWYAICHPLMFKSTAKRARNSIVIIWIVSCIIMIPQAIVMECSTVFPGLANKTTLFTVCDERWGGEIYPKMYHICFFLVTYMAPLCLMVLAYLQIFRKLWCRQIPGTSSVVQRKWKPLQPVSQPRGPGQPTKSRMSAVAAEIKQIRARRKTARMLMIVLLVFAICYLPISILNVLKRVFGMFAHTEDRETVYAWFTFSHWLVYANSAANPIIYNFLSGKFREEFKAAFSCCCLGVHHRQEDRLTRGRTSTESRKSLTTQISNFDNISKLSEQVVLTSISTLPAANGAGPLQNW
Description: as §5

| IC50 [1] [µM] | IC50 [2] [µM] | IC50 [3] [µM] | IC50 [4] [µM] | AUC(0-inf) [5] [ng·h/mL] | Cmax [5] [ng/mL] | Tmax [5] [min] | IC50 [6] [µM] | IC50 [7] [µM] | Select fold [7] | Structure (SMILES) |
| --- | --- | --- | --- | --- | --- | --- | --- | --- | --- | --- |
| > 100 | > 100 | > 100 | 82.7 | 130 | 124 | 36 | 1.06 | 0.0087 | 122 | CC(C)(O)c1nc(N2C[C@H]3CN(C(=O)c4c(F)cccc4-c4ncccn4)C[C@H]3C2)ncc1F [Compound 9, ((3aR,6aS)-5-(5-fluoro-4-(2-hydroxyprop-2-yl)pyrimidin-2-yl)hexahydropyrrolo[3,4-c]pyrrol-2(1H)-yl)(2-fluoro-6-(pyrimidin-2-yl)phenyl)methanone] |
| > 100 | > 100 | > 100 | 82.7 | 821 | 394 | 15 | 1.32 | 0.027 | 49 | Cc1nc(N2C[C@H]3CN(C(=O)c4cccc(F)c4-n4nccn4)C[C@H]3C2)nc(C(C)(C)O)c1F [Compound 11, (3-fluoro-2-(2H-1,2,3-triazol-2-yl)phenyl)((cis)-5-(5-fluoro-4-(2-hydroxypropan-2-yl)-6-methylpyrimidin-2-yl)hexahydropyrrolo [3,4-c]pyrrol-2(1H)-yl)methanone] |
